These results are taken from article PMC8550792, “Evolution of kinase polypharmacology across HSP90 drug discovery” (Cell Chemical Biology, 2021).

What all share (experiment): biochemical
Format in all cases: biochemical

Test [1] addresses T1, 382 unique human kinases (Homo sapiens, UniProt Q12866, A708S).
T1 construct: purchased Reaction Biology (HotSpot contract assay)
T1 sequence (Q12866 21-999 A708S): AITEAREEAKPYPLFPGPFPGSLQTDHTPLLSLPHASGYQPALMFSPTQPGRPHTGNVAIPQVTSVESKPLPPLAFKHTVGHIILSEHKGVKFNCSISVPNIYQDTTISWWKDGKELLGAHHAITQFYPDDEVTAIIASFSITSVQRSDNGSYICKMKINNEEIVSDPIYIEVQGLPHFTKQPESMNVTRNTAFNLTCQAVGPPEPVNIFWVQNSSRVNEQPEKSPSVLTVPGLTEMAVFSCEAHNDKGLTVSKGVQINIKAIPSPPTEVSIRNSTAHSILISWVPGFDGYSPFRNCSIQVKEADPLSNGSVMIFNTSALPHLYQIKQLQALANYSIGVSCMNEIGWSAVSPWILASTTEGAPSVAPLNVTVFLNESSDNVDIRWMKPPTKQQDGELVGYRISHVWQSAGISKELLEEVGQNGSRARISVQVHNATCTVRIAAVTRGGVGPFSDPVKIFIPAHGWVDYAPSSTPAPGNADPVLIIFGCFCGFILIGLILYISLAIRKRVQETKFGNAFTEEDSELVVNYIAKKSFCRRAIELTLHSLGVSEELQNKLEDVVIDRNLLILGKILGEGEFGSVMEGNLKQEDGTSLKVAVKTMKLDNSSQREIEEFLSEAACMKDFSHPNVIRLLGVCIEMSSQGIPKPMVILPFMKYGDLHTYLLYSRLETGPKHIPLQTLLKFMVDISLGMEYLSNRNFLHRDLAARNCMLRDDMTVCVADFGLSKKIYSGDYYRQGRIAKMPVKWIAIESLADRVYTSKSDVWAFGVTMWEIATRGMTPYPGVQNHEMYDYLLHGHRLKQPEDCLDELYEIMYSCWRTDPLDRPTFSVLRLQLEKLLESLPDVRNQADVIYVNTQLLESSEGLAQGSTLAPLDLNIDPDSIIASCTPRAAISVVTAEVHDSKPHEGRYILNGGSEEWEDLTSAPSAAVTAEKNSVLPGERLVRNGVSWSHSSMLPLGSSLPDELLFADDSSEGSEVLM
The settings on record: c-MER (A708S), 10 uM; for remaining activity at 10 µM: read-out: % Enzyme Activity (relative to DMSO controls).

The target in test [2] is T2, 382 unique human kinases (Homo sapiens, UniProt P10721, D820E).
T2 construct: purchased Reaction Biology (HotSpot contract assay)
The conditions noted are these: c-Kit (D820E), 10 uM; for remaining activity at 10 µM: read-out: % Enzyme Activity (relative to DMSO controls).

Test [3] deals with T3, 382 unique human kinases (Homo sapiens, UniProt P07949, V804M).
T3 construct: purchased Reaction Biology (HotSpot contract assay)
The conditions noted are these: RET (V804M), 10 uM; for remaining activity at 10 µM: read-out: % Enzyme Activity (relative to DMSO controls).

Test [4] has as its target T4, 382 unique human kinases (Homo sapiens, UniProt Q13163).
T4 construct: purchased Reaction Biology (HotSpot contract assay)
T4 sequence (Q13163 1-448): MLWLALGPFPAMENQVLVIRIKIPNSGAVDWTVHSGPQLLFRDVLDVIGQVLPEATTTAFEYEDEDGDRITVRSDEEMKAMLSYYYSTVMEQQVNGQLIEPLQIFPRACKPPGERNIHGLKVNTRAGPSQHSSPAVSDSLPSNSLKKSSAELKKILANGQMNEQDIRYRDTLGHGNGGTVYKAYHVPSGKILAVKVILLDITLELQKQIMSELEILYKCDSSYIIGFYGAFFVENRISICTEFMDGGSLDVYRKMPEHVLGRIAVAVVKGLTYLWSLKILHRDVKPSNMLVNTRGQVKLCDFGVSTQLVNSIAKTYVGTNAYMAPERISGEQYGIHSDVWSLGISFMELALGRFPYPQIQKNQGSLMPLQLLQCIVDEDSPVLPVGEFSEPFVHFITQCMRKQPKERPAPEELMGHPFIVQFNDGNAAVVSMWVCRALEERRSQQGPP
The settings on record: MEK5, 10 uM; for remaining activity at 10 µM: read-out: % Enzyme Activity (relative to DMSO controls).

In test [5] the target is T5, 382 unique human kinases (Homo sapiens, UniProt P00533, G719C).
T5 construct: purchased Reaction Biology (HotSpot contract assay)
The settings on record: kinase EGFR (G719C), compound 10 uM; for remaining activity at 10 µM: read-out: % Enzyme Activity (relative to DMSO controls).

For test [6], the target named is T6, 382 unique human kinases (Homo sapiens, UniProt Q12866).
T6 construct: purchased Reaction Biology (HotSpot contract assay)
T6 sequence (Q12866 21-999): T1 sequence (Q12866 21-999 A708S) with S688A
The settings on record: c-MER, 10 uM; for remaining activity at 10 µM: read-out: % Enzyme Activity (relative to DMSO controls).

Test [7] has as its target T7, 382 unique human kinases (Homo sapiens, UniProt O75582).
T7 construct: purchased Reaction Biology (HotSpot contract assay)
The conditions noted are these: kinase MSK1/RPS6KA5, compound 10 uM; for remaining activity at 10 µM: read-out: % Enzyme Activity (relative to DMSO controls).

Test [8] concerns the target T8, 382 unique human kinases (Homo sapiens, UniProt Q9NQU5).
T8 construct: purchased Reaction Biology (HotSpot contract assay)
The settings on record: PAK6, 10 uM; for remaining activity at 10 µM: read-out: % Enzyme Activity (relative to DMSO controls).

Each structure is given as a SMILES string. Substitutions are numbered along the chain they refer to.

T7 sequence (O75582 whole entry): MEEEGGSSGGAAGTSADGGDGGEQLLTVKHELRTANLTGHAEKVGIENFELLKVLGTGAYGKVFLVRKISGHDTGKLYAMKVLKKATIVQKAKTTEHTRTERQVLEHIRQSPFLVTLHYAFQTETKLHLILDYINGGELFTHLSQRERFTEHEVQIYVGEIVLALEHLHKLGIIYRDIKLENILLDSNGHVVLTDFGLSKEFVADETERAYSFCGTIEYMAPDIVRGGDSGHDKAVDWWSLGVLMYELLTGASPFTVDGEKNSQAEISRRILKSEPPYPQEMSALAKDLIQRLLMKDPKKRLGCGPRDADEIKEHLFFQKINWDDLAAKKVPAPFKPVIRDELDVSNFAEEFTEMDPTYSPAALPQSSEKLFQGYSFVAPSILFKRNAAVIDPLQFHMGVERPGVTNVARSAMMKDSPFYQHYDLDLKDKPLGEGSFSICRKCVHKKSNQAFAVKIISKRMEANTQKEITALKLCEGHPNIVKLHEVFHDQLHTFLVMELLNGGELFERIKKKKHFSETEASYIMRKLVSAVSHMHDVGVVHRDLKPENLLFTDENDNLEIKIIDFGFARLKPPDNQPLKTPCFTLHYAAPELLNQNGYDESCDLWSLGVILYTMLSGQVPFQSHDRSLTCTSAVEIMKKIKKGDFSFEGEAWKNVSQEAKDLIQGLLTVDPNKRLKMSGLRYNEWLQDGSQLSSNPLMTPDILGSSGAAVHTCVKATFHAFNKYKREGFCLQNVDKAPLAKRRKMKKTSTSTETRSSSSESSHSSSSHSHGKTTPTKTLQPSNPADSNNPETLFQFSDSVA
T3 sequence (P07949 29-1114 V804M): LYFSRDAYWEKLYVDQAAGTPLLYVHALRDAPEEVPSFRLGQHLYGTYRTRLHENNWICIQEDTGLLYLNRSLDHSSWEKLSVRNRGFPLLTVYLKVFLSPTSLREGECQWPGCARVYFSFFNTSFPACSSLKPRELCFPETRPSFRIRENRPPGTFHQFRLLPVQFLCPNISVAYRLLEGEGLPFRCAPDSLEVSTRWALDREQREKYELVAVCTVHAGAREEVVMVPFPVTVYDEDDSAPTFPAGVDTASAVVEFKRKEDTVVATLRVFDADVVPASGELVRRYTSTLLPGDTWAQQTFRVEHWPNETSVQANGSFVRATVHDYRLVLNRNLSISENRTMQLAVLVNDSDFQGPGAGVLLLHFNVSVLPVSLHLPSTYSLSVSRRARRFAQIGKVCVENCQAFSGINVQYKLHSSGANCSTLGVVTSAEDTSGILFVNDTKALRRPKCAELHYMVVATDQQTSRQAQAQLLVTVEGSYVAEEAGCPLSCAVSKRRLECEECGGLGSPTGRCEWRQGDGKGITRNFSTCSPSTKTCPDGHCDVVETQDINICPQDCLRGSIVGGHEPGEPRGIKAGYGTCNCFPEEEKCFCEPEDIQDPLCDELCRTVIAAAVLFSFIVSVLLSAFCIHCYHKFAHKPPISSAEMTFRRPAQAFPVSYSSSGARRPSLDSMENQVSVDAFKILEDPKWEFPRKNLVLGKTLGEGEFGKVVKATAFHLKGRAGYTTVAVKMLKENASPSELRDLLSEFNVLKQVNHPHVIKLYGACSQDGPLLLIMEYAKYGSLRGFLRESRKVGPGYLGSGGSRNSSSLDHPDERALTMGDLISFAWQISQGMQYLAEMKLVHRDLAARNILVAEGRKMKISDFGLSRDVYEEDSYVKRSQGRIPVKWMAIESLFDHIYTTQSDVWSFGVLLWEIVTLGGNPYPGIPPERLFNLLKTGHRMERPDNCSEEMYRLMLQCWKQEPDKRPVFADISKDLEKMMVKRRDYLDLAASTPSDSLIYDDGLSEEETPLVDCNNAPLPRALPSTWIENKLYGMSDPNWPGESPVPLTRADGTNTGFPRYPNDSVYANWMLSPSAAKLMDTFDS
T8 sequence (Q9NQU5 whole entry): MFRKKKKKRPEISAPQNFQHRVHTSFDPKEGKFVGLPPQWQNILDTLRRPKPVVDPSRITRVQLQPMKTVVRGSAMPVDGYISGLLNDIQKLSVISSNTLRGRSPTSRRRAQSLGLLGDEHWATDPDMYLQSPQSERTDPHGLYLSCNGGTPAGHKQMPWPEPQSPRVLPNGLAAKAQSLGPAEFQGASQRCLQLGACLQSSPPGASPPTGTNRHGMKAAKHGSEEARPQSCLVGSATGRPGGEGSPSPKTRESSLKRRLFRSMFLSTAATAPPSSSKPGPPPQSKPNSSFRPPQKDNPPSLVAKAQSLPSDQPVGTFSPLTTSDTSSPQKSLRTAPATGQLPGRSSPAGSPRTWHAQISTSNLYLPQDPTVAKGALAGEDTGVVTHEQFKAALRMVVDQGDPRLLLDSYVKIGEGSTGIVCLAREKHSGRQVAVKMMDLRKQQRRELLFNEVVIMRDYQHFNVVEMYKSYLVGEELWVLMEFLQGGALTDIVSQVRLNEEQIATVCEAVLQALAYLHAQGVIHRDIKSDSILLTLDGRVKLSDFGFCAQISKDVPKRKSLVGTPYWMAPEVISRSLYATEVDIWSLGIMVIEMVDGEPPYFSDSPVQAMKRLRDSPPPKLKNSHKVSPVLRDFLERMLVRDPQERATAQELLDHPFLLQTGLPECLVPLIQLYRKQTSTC
T2 sequence (P10721 26-976 D820E): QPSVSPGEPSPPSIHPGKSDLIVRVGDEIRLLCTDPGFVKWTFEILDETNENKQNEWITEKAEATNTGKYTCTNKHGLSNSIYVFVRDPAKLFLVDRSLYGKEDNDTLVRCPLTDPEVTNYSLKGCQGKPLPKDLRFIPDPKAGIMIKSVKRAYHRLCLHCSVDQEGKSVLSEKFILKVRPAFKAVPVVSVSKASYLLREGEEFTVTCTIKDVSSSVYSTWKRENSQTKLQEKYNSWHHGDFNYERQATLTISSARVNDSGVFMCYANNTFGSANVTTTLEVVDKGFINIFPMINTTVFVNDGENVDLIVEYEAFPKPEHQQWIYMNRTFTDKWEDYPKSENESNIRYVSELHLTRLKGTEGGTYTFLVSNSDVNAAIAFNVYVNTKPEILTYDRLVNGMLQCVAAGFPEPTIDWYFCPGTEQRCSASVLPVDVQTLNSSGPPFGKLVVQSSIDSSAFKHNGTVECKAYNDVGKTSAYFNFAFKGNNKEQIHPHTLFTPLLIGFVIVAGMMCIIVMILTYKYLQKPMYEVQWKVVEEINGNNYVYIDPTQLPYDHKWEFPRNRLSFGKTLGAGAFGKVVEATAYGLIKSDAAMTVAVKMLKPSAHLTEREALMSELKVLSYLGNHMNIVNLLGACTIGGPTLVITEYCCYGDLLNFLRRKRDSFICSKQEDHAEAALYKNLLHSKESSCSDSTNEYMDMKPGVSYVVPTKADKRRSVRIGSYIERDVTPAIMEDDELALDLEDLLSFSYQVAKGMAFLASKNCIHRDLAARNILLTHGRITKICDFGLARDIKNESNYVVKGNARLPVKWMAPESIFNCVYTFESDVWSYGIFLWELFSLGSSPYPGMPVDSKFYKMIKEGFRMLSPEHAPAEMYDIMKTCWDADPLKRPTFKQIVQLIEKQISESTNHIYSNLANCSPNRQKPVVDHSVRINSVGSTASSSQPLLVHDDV

For `CC(C)c1cc(-c2n[nH]c(=O)n2-c2ccc3c(ccn3C)c2)c(O)cc1O` [Ganetespib (STA9090)], the remaining activity at 10 µM at 382 unique human kinases [1] was 72.7%; on 382 unique human kinases [2] it was 72.5%; at 382 unique human kinases [3], 81%; on 382 unique human kinases [4], 65.3%; at 382 unique human kinases [5], 84.6%; on 382 unique human kinases [6], 63.5%. Further, at 382 unique human kinases [7], the remaining activity at 10 µM was found to be 81%.

For `CC(C)c1cc(-c2n[nH]c(=O)n2-c2ccc3c(ccn3C)c2)c(O)cc1O` [Ganetespib], the remaining activity at 10 µM on 382 unique human kinases [8] came out at 106%.

In the case of `CCNC(=O)c1noc(-c2cc(C(C)C)c(O)cc2O)c1-c1ccc(CN2CCOCC2)cc1` [Luminespib (AUY-922)], the “% Enzyme Activity (relative to DMSO controls)” value at 382 unique human kinases [1] was found to be 96.08%; on 382 unique human kinases [2], 88.12%; on 382 unique human kinases [3], 97.95%; at 382 unique human kinases [4], 99.65%; at 382 unique human kinases [5], 99.10%; at 382 unique human kinases [6] it was 93.85%. Further, the “% Enzyme Activity (relative to DMSO controls)” value at 382 unique human kinases [7] was found to be 109.40%. Also, the remaining activity at 10 µM at 382 unique human kinases [1] stood at 98.6%; at 382 unique human kinases [2], 88.4%; on 382 unique human kinases [3], 98.7%; on 382 unique human kinases [4], 100%; at 382 unique human kinases [5], 100%; at 382 unique human kinases [6], 97.7%. The remaining activity at 10 µM at 382 unique human kinases [7] is 111%.

`CCNC(=O)c1noc(-c2cc(C(C)C)c(O)cc2O)c1-c1ccc(CN2CCOCC2)cc1` [Luminespib]: at 382 unique human kinases [8], the “% Enzyme Activity (relative to DMSO controls)” value was found to be 95.70% and the remaining activity at 10 µM amounted to 97.2%.
